{
  "source": "patent US20150374709A1",
  "about": "“TETRA-SUBSTITUTED NDGA DERIVATIVES VIA ETHER BONDS AND CARBAMATE BONDS AND THEIR SYNTHESIS AND PHARMACEUTICAL USE” (ERIMOS PHARMACEUTICALS LLC, priority 2006, published 2015)",
  "key": {"[1]": {"tested_on": "TAT-mediated transactivation of HIV transcription (HIV-1 LTR promoter)", "assay": "SEAP assay of TAT-mediated transactivation (antiviral activity)", "format": "cell-based, human immunodeficiency virus (HIV)", "conditions": "Human immunodeficiency virus 1, COS-7, 48 h, read-out: SEAP EC50", "procedure": "Antiviral activity is determined using a SEAP (SEcreted Alkaline Phosphatase) assay, in which cells are co-transfected with SEAP and TAT plasmids. TAT is a transactivator, human immunodeficiency virus (HIV) gene expression and is one of the two or more necessary viral regulatory factors (TAT and REV) for HIV gene expression. TAT acts iv binding to the TAR RNA element and activating transcription from the long terminal repeat (LTR) promoter. […] Previous studies have shown that TAT mediates reduction of antibody-dependent T cell proliferation, contributing substantially to the failure of the immune response. TAT also directly stimulates Kaposi's cell growth.\nSince TAT has no apparent cellular homologs, this strong positive regulator has become an attractive target for the development of anti-AIDS drugs. In contrast to currently available HIV reverse transcriptase inhibitors (AZT, DDI) or potential protease inhibitors that prevent new rounds of infection, an inhibitor which suppresses viral gene TAT regulated expression of integrated proviral DNA will arrest the virus at an early stage (Hsu et al., Science 254:1799-1802, 1991). Efforts aimed at the elucidation of factors which control gene expression at transcriptional and post-transcriptional levels in host eukaryotes have recently made possible quantitative assessment of TAT function (Sim, Ann. N.Y. Acad. Sci. 616: 64-70, 1990). To screen for inhibitors for TAT regulated transactivation (TAT-TRS), the SEAP reporter gene is put under the control of HIV-1 LTR promoter in the plasmid pBC12/HIV/SEAP. The TAT-coded activity is supplied by a second plasmid construct pBC12/CMV/t2. Transient co-transfection of COS-7 cells with these two plasmids leads to secretion of alkaline phosphatase into the culture medium which is analyzed by a simple colorimetric assay (Berger et al., Gene 66: 1-10, 1988). […]\nIn the SEAP assay, an inhibitor should cause reduction of SEAP reporter gene expression via transactivation of the HIV-1 LTR promoter by TAT protein (TAT-TRS). […] SEAP is detected colorimetrically by the para-nitrophenyl phosphate substrate at 405 nm. […] The cells are analyzed by the MTT assay to compare cytotoxicity to SEAP inhibition. […]\nCOS-7 (green monkey kidney) cells were co-transfected using Fugene 6 reagent (Roche Applied Science, Cat. No. 11815091001, Indianapolis, Ind., USA) with two plasmids: pHIVSEAP (SEAP expression vector under the control of the HIV LTR promoter) and pCTAT (HIV TAT transcription factor expression vector under the control of a CMV (cytomegalovirus) promoter). After test compound treatment for 48 hours, samples were analyzed for […] at 405 nm after addition of the p-nitrophenyl phosphate substrate. The percentage of SEAP activity inhibition was calculated in relation to the placebo control."}, "[2]": {"tested_on": "NSCLC cell lines", "assay": "NCI DTP human tumor cell line screen, NSCLC panel", "format": "cell-based", "conditions": "NSCLC (8 cell lines)", "text": "The United States National Cancer Institute (NCI) provides a developmental therapeutics program (DTP) (http://dtp.nci.nih.gov/branches/btb/ivelsp.html) to screen submitted substances in support of cancer drug discovery. The In Vitro Cell Line Screening Project (IVCLSP) is a dedicated service providing direct support to the DTP anticancer drug discovery program and is designed to screen up to 3,000 compounds per year for potential anticancer activity. The operation of this screen utilizes 60 different human tumor cell lines, representing leukemia, melanoma and cancers of the lung, colon, brain, ovary, breast, prostate, and kidney. The aim is to prioritize for farther evaluation, synthetic compounds or natural product samples showing selective growth inhibition or cell killing of particular tumor cell lines. This screen is unique in that the complexity of a 60 cell line dose response produced by a given compound results in a biological response pattern which can be utilized in pattern recognition algorithms (COMPARE program. See: http://dtp.nci.nih.gov/docs/compare/compare.html). Using these algorithms, it is possible to assign a putative mechanism of action to a test compound, or to determine that the response pattern is unique and not similar to that of any of the standard prototype compounds included in the NCI database. […]"}},
  "data": [
    {"smiles": "C[C@H](Cc1ccc(OCCCN2CCCCC2)c(OCCCN2CCCCC2)c1)[C@@H](C)Cc1ccc(OCCCN2CCCCC2)c(OCCCN2CCCCC2)c1", "note": "[Compound A, 1,4-bis{3,4-bis[3-(piperidin-1-yl)propoxy]phenyl}-2,3-dimethyl-(2R,3S)-butane]", "values": [
      {"measurement": "EC50", "setting": "[1]", "value": "500 to 1000", "unit": "nM"},
      {"measurement": "Mean Growth Percent at 10 μM", "setting": "[2]", "value": "−90.92", "unit": "%"}
    ]}
  ]
}
